{"source": "patent US20140243411A1", "about": "(priority 2011, published 2014)", "test_system": "rats contaminated with ^241Am", "assay": "Radionuclide decorporation efficacy study in rats contaminated with 241Am (Example 10): excretion, tissue content, liver and skeleton burden", "type": "in vivo, SD rats", "protocol": "All animal studies were conducted according to a protocol approved by the University of North Carolina at Chapel Hill Institutional Animal Care and Use Committee (IACUC). Ten-week-old adult female SD rats weighing from 200 to 300 g were used in these studies (Charles River Labs, Raleigh, N.C.). Food and water were given ad libitum. The animal room was kept at a controlled temperature (23° C.) and light cycle (light exposure from 8 AM to 8 PM). For the duration of the study, the rats were housed in metabolic cages individually with daily urine and feces collection until euthanasia on Day 7.\nTo evaluate the efficacy of transdermal delivery of the C2E5 nonaqueous gel, a radionuclide decorporation efficacy study was conducted in rats contaminated with ^241Am. Adult female SD rats were anesthetized with 2-3% isoflurane. Dorsal skin between the cervical vertebrae and anterior thoracic vertebrae was clipped with caution before all animals were contaminated with [^241Am]-Americium nitrate solution (250 nCi, 0.1 mL) via an i.m. injection in anterior thigh muscle. The C2E5 nonaqueous gel was applied at dose of 1000 mg/kg using a cotton swap to a 6 cm^2 (2 cm×3 cm) area of the clipped dorsal region immediately after contamination. A jacket with plastic dorsal insert (VWR International) was placed on the rat to protect the gel application region. The mass of C2E5 gel applied was recorded for each animal to permit the actual dose determination. The animals were housed in metabolic cages individually after C2E5 treatment and were euthanized 7 days after contamination. Positive and negative controls included animals administered Ca-DTPA intravenously and animals without any treatment. The animals were observed once daily and their body weights recorded at pre-dose and prior to necropsy, Urine and feces were collected daily until euthanasia, when the liver, kidneys, both femurs and the muscle tissue from around the injection site were also collected. Cage washes were collected at the end of each experiment. As ˜35% of the decay of ^241Am is associated with photon emissions of 59.7 keV, ^241Am present in samples was quantified using a gamma counter (2470 Wizard 2, Perkin Elmer). The samples were counted for one minute using a 40-80 keV energy detection window and were background-corrected. Additionally, ^241Am activity was quantified in 2×0.1 mL aliquots of the dosing solution. For all samples, ^241Am content was expressed as a percentage of the initial dose.\nwhere % ID represents the percent of injected dose. Where data for both femurs were available, an estimate of the total skeletal burden was made using the method of Volf with modification in which the counts in the contra-lateral femur were multiplied by 19 and added to the counts in the ipsi-lateral femur. The modification for the literature method was due to higher ^241Am content in ipsi-lateral femur as a result of i.m. injection in anterior thigh muscle.\nStatistically significant differences among groups were determined using one-way ANOVA with Tukey's post hoc comparison. All measurements are expressed as mean±standard deviation (S.D.). The level of significance was set at p<0.05.", "key": {"[1]": {"conditions": "rats, seven days following a single dose, Ca-DTPA 14 mg/kg i.v., C2E5 1000 mg/kg transdermal"}, "[2]": {"conditions": "seven days after single dose, Ca-DTPA 14 mg/kg i.v., C2E5 1000 mg/kg transdermal gel"}}, "note": "Marks after values point to notes of the source that are not given here."}
{"compound": "O=C([O-])CN(CCN(CC(=O)[O-])CC(=O)[O-])CCN(CC(=O)[O-])CC(=O)[O-].[Ca+2].[Na+].[Na+].[Na+]", "note": "[Ca-DTPA, reference compound]", "values": [{"measurement": "time of peak ^241Am excretion", "setting": "14 mg/kg i.v.", "value": "≤ 24", "unit": "h"}, {"measurement": "Skeleton Burden (% of ID)", "setting": "contra-lateral femur × 19 + ipsi-lateral femur, rats, seven days following a single dose, Ca-DTPA 14 mg/kg i.v. (n = 3), C2E5 1000 mg/kg transdermal", "value": "11.6 ± 2.2^b % of ID"}, {"measurement": "Ipsi-lateral femur content of 241Am", "setting": "rats, seven days following a single dose, Ca-DTPA 14 mg/kg i.v. (one animal excluded), C2E5 1000 mg/kg transdermal", "value": "0.88 ± 0.18^c % of ID of ^241Am"}, {"measurement": "% of Reduction over control (liver burden)", "setting": "[1]", "value": 38.2, "unit": "%"}, {"measurement": "% of Reduction over control (skeleton burden)", "setting": "[1]", "value": 29.3, "unit": "%"}, {"measurement": "Contra-lateral femur content of 241Am", "setting": "[1]", "value": "0.57 ± 0.09 % of ID of ^241Am"}, {"measurement": "Kidney content of 241Am", "setting": "[1]", "value": "0.55 ± 0.03 % of ID of ^241Am"}, {"measurement": "Liver Burden (% of ID)", "setting": "[1]", "value": "10.2 ± 2.7 % of ID"}, {"measurement": "Liver content of 241Am", "setting": "[1]", "value": "10.2 ± 2.7 % of ID of ^241Am"}, {"measurement": "Muscle-contra content of 241Am", "setting": "[1]", "value": "0.0054 ± 0.0028 % of ID of ^241Am per gram of muscle-contra"}, {"measurement": "Muscle-ipsi content of 241Am", "setting": "[1]", "value": "40.0 ± 8.5 % of ID of ^241Am"}, {"measurement": "Pelt at injection site content of 241Am", "setting": "[1]", "value": "0.43 ± 0.24 % of ID of ^241Am"}, {"measurement": "Total decorporation (% of ID of 241Am)", "setting": "[1]", "value": "24.5 ± 3.5 % of ID of ^241Am"}, {"measurement": "reduction of liver burden of ^241Am versus control group", "setting": "seven days after single dose, Ca-DTPA 14 mg/kg i.v., C2E5 1000 mg/kg transdermal", "value": 38.2, "unit": "%"}, {"measurement": "% of Enhanced decorporation over control", "setting": "[2]", "value": 255.3, "unit": "%"}, {"measurement": "Cumulative excretion of ^241Am In feces", "setting": "[2]", "value": "6.1 ± 1.1 % of ID"}, {"measurement": "Cumulative excretion of ^241Am In urine", "setting": "[2]", "value": "18.3 ±2.5 % of ID"}, {"measurement": "Cumulative excretion of ^241Am Total", "setting": "[2]", "value": "24.5 ± 3.5 % of ID"}]}
